Laboratory results published in PMC7816042, “Insights into the Structure-Activity Relationship of Glycosides as Positive Allosteric Modulators Acting on P2X7 Receptors” (Molecular Pharmacology, 2021).

Tests used:
[1] = biological target: T1, endogenous P2X7 in THP-1 cells (Homo sapiens, UniProt Q99572); test: Fura-2 calcium measurements in THP-1 monocytes; format: cell-based; conditions: for Effect on ATP-induced calcium response: 500 µM ATP co-applied with 10 µM glycoside
T1 sequence (Q99572 1-394 limits assumed): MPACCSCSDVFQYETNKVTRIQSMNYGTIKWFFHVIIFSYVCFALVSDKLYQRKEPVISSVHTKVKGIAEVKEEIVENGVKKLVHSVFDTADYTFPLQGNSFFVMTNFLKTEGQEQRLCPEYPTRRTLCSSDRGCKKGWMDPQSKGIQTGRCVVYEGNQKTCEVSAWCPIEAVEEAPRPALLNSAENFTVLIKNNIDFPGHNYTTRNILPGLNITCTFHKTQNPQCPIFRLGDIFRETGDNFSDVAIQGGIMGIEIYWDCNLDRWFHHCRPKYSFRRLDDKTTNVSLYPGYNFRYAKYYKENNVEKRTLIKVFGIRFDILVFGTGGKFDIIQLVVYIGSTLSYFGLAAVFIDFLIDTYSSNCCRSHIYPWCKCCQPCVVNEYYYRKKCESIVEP
Description: THP-1 cells were pelleted by centrifugation (300g, 5 minute), washed, and resuspended in Hanks’ balanced salt solution buffer containing 2 μM fura-2 AM (HelloBio) and 250 μM (±)-sulfinpyrazone. Cells were loaded for 1 hour in a waterbath at 37°C while shielded from light with foil. Loaded cells were washed once with 5 ml Hanks’ balanced salt solution to remove excess fura-2 AM dye. THP-1 cells were then resuspended, counted, and plated at 2 × 10^5 cells per well in a standard clear 96-well plate (NUNC 167008; Thermo Scientific) in low divalent assay buffer without Mg^2+ (145 mM NaCl, 2 mM KCl and 2 mM CaCl2, 13 mM glucose, 10 mM HEPES, pH 7.3) containing 250 μM (±)-sulfinpyrazone. The 10× concentration of agonist (ATP) was prepared in the same assay buffer. ATP was injected automatically into wells at 30 seconds in a Flexstation 3 microplate reader. Ratiometric data were acquired using 340 and 380 nm for excitation wavelengths, 520 nm as the emission wavelength, and six reads per well (PMT medium). Area under the curve was calculated using standard zero baseline normalization with a lag time 0–300 seconds using SoftMax Pro version 5.4 software.
(§1) Results are expressed as means ± S.D. from the indicated number of experiments. For YO-PRO-1 dye uptake and intracellular calcium experiments, each independent experiment used triplicate wells, and the means of the replicates were collated and plotted. Technical replicates were used to ensure reliability of fluorescence values. […] Dose-response curves were plotted by a nonlinear regression fit with variable slope using GraphPad Prism software version 7. Half-maximal responses are expressed as EC50 values with 95% confidence intervals. These values were calculated from the collated data for each compound from three independent experiments. Statistical differences were determined by analysis of the data by one-way ANOVA followed by Dunnett’s multiple comparison test or Sidak’s multiple comparison test using GraphPad Prism version 7. P < 0.05 was the accepted minimum level of significance.

[2] = biological target: T2, human P2X7 (Homo sapiens, UniProt Q99572); test: YO-PRO-1 dye uptake assay in HEK-hP2X7 cells; format: cell-based; conditions: 10 µM glycoside; for PAM effect on ATP dose-response curve: HEK-hP2X7, result in words; for EC50 ratio: average EC50 for ATP + vehicle of each set of experiments used; for Maximum response (fold increase): maximum response defined at 1 mM ATP
T2 construct: expressed in transfected cells
T2 sequence (Q99572 1-595): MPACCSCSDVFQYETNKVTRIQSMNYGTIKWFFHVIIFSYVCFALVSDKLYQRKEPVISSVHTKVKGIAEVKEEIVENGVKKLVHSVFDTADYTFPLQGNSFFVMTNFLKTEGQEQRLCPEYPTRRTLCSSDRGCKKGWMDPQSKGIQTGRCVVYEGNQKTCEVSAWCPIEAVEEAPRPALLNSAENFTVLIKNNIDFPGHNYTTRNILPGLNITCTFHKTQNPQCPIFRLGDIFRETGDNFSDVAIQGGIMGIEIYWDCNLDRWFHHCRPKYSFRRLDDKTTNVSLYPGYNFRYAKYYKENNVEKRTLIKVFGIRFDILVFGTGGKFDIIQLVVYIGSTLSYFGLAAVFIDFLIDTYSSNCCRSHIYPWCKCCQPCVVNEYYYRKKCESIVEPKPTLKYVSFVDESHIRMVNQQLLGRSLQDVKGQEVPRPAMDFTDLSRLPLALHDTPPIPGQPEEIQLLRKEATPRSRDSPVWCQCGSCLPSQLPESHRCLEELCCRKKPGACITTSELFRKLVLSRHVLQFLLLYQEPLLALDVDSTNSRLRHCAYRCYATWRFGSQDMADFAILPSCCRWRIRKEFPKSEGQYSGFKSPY
Description: ATP-induced dye uptake experiments were performed as described previously ([Bidula et al., 2019b]). Briefly, HEK-hP2X7 cells were plated at 2 × 10^4 cells per well (100 μl per well) in complete medium and left overnight to attach to poly-D-lysine–coated 96-well plates. YO-PRO-1 iodide was prepared in a low divalent buffered solution ([…], 2 mM KCl, 13 mM D-glucose, 10 mM HEPES, 0.2 mM CaCl2 pH 7.3) to a final concentration of 2 μM. Medium was removed from the plate using a manual multichannel pipette and YO-PRO-1 containing buffer applied to wells (180 μl per well). […] A Flexstation 3 plate reader (Molecular Devices, Sunnyvale, CA) was used to record YO-PRO-1 fluorescence in HEK-hP2X7 for 300 seconds after the addition of ATP (at 10× final concentration) with/without ginsenoside compounds or vehicle (DMSO). Plates were allowed to warm up to 37°C for 10 minutes before initiating the recording. Baseline recordings were made for 40 seconds before compound addition using the Flexstation 3 fluidics system. YO-PRO-1 fluorescence was measured at 520 nm after excitation at 490 nm (auto cutoff at 495 nm), and the sample interval was 3.5 seconds. Flexstation settings were photomultiplier tube (PMT) medium, six reads per well, pipette height 170, and a rate of injection of 3. Data were acquired using Softmax Pro version 5.4 (Molecular Devices). To analyze the data, area under the dye uptake curve was calculated in Softmax Pro version 5 using zero baseline data with a lag time of 50 seconds (50–300 seconds).
as §1

[3] = test system: HEK-hP2X7 cells; test: Cell viability assay (resazurin/Alamar blue) in HEK-hP2X7 cells; format: cell-based, human; conditions: 24 hours
Description: HEK-hP2X7 or THP-1 cells were seeded at 5 × 10^3 cells per well in a volume of 100 μl for 24 hours in 96-well plates (Nunclon Edge plates, catalog number 167425; Thermo Scientific). Cells were plated in DMEM:F12 medium or RPMI 1640 medium containing 1% FBS and penicillin/streptomycin for 24 hours in a humidified incubator at 37°C with a constant supply of 5% CO2. Edge wells of the plates were filled with autoclaved distilled water to prevent evaporation of media from wells containing cells. The compounds and ATP were made at 2× final concentration in 1% FBS DMEM:F12 and 100 μl added to the cells for 24 hours. After incubation, resazurin sodium salt (CAS 62758-13-8; Sigma Aldrich) at 0.1 mg/ml in sterile PBS was added to the plate (20 into 200 µl culture medium per well). Cells were incubated for a further 2 hours in a humidified incubator at 37°C with a supply of 5% CO2. A Flexstation 3 microplate reader was used to acquire data. Endpoint fluorescence data were measured using 570 nm excitation wavelength, 600 nm emission wavelength (cutoff at 590 nm), and three reads per well (PMT low). Data were analyzed by performing background correction through subtracting blank medium readings (without cells) from all samples and then normalizing each sample to medium treated cells (control treatment, 100%) as percentage of control.
Results are expressed as means ± S.D. from the indicated number of experiments. For YO-PRO-1 dye uptake and intracellular calcium experiments, each independent experiment used triplicate wells, and the means of the replicates were collated and plotted. Technical replicates were used to ensure reliability of fluorescence values. Cell viability data were normalized to the vehicle control for each experiment after background correction had been performed. Dose-response curves were plotted by a nonlinear regression fit with variable slope using GraphPad Prism software version 7. Half-maximal responses are expressed as EC50 values with 95% confidence intervals. These values were calculated from the collated data for each compound from three independent experiments. Statistical differences were determined by analysis of the data by one-way ANOVA followed by Dunnett’s multiple comparison test or Sidak’s multiple comparison test using GraphPad Prism version 7. P < 0.05 was the accepted minimum level of significance.

[4] = biological target: T2, human P2X7; design: method as in Helliwell et al., 2015; conditions: ref Helliwell et al., 2015; cited from earlier work

SMILES	Antagonist effect on ginsenoside-CK potentiated calcium response ([1]; 10 µM antagonist pretreatment, 500 µM ATP + ginsenoside-CK)	Antagonist effect on calcium response to ATP alone ([1]; 500 µM ATP, antagonist pretreatment)	PAM effect on ATP dose-response curve [2]	EC50 ratio [2]	Maximum response (fold increase) [2] [fold]	Cell viability in combination with ATP [3]	Effect on ATP-induced calcium response [1]	Maximum response (fold increase) ([2]; listed as gypenoside XVII) [fold]	PAM activity at human P2X7 [4]
O=C1CSC(=O)N1C(CCc1ccncc1)COc1ccc(-c2cccc([N+](=O)[O-])c2)cc1 (centres unmarked) [AZ11645373, reference compound]	completely abolished	did not dramatically affect							
CC(C)=CCC[C@@](C)(O)[C@H]1CC[C@]2(C)[C@@H]1[C@H](O)C[C@@H]1[C@@]3(C)CC[C@H](O[C@@H]4O[C@H](CO)[C@@H](O)[C@H](O)[C@H]4O[C@@H]4O[C@H](CO)[C@@H](O)[C@H](O)[C@H]4O)C(C)(C)[C@@H]3CC[C@]12C [Ginsenoside-20(R)-Rg3, 20(R)-ginsenoside-Rg3]			inactive	1.0	0.94	neither gypenoside XVII nor 20(R)-Rg3 in combination with ATP affected cell viability			
CC(C)=CCC[C@](C)(O)[C@H]1CC[C@]2(C)[C@@H]1[C@H](O)C[C@@H]1[C@@]3(C)CC[C@H](O[C@@H]4O[C@H](CO)[C@@H](O)[C@H](O)[C@H]4O[C@@H]4O[C@H](CO)[C@@H](O)[C@H](O)[C@H]4O)C(C)(C)[C@@H]3CC[C@]12C [Ginsenoside-20(S)-Rg3, 20(S)-ginsenoside-Rg3]			positive modulator activity with a reduced EC50 for ATP and increased maximal response	1.8	2.4	could reduce cell viability	potentiated		
CC(C)=CCC[C@](C)(O[C@@H]1O[C@H](CO)[C@@H](O)[C@H](O)[C@H]1O)[C@H]1CC[C@]2(C)[C@@H]1[C@H](O)C[C@@H]1[C@@]3(C)CC[C@H](O)C(C)(C)[C@@H]3[C@@H](O)C[C@]12C [Ginsenoside-F1, ginsenoside-F1]			did not potentiate P2X7 responses	1.1	1.46		inactive		
CC(C)=CCC[C@](C)(O[C@@H]1O[C@H](CO)[C@@H](O)[C@H](O)[C@H]1O)[C@H]1CC[C@]2(C)[C@@H]1[C@H](O)C[C@@H]1[C@@]3(C)CC[C@H](O[C@@H]4O[C@H](CO)[C@@H](O)[C@H](O)[C@H]4O)C(C)(C)[C@@H]3CC[C@]12C [Ginsenoside-F2, ginsenoside-F2]			mixed type I/II effect	5.4	2.23	could reduce cell viability	potentiated		
CC(C)=CCC[C@](C)(O[C@@H]1O[C@H](CO)[C@@H](O)[C@H](O)[C@H]1O)[C@H]1CC[C@]2(C)[C@@H]1[C@H](O)C[C@@H]1[C@@]3(C)CC[C@H](O[C@@H]4O[C@H](CO)[C@@H](O)[C@H](O)[C@H]4O[C@@H]4O[C@H](CO)[C@@H](O)[C@H](O)[C@H]4O)C(C)(C)[C@@H]3CC[C@]12C [Ginsenoside-Rd, ginsenoside-Rd]			mixed type I/II effects	3.8	2.77	very effective at enhancing cell death	potentiated		
CC(C)=CCC[C@](C)(O[C@@H]1O[C@H](CO[C@@H]2O[C@H](CO)[C@@H](O)[C@H](O)[C@H]2O)[C@@H](O)[C@H](O)[C@H]1O)[C@H]1CC[C@]2(C)[C@@H]1[C@H](O)C[C@@H]1[C@@]3(C)CC[C@H](O[C@@H]4O[C@H](CO)[C@@H](O)[C@H](O)[C@H]4O)C(C)(C)[C@@H]3CC[C@]12C [Gypenoside XVII, gypenoside XVII]				2.4	2.0	neither gypenoside XVII nor 20(R)-Rg3 in combination with ATP affected cell viability		2	
CC(C)=CCC[C@](C)(O)[C@H]1CC[C@]2(C)[C@@H]1[C@H](O)C[C@@H]1[C@@]3(C)CC[C@H](O)C(C)(C)[C@@H]3CC[C@]12C [PPD, protopanaxadiol]			no effect on the ATP dose-response curve						no activity
CC(C)=CCC[C@](C)(O)[C@H]1CC[C@]2(C)[C@@H]1[C@H](O)C[C@@H]1[C@@]3(C)CC[C@H](O[C@@H]4O[C@H](CO)[C@@H](O)[C@H](O)[C@H]4O)C(C)(C)[C@@H]3CC[C@]12C [ginsenoside-Rh2]									able to potentiate hP2X7 responses
